Experimental findings from patent publication US20240190880A1 (THE REGENTS OF THE UNIVERSITY OF MICHIGAN, priority 2021, published 2024) are described below.

Each structure is given as a SMILES string.

One test concerns the target T1, ER (Homo sapiens, UniProt P03372).
T1 construct: host or cells: T47D and MCF7 human breast cancer cells
T1 sequence (P03372 1-595): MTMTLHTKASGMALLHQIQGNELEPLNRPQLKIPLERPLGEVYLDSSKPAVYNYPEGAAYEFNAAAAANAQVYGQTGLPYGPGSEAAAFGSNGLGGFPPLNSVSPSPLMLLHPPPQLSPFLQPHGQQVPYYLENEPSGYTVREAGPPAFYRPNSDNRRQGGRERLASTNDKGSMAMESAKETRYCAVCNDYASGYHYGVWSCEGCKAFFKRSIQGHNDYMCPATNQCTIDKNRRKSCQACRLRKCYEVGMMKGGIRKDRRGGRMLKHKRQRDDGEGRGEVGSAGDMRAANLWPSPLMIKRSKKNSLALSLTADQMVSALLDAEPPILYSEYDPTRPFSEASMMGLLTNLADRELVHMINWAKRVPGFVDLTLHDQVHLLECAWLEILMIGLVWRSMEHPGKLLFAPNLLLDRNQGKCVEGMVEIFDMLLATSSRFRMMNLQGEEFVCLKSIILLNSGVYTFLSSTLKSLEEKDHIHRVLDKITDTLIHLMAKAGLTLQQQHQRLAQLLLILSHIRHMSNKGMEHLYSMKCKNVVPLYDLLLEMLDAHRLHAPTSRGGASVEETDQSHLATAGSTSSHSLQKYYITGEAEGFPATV
Nature of the test: ER degradation activity, in-cell western blot analysis in T47D cells. The test is classed as cell-based. To be noted: 16 hours, Table A does not say which cell line (T47D or MCF7), read-out: Potency (DC50). In short, it runs like this:
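T47D cells cultured in DMEM with 10% FBS, treated with compounds (final 0.5% DMSO) for 16 h. ER level measured by in-cell western with anti-rabbit-680/anti-mouse-800 near-infrared detection. Relative ER percentage calculated against untreated and DMSO-treated wells set as 100%.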
The term DC50 denotes the concentration at which degradation of the target reaches its halfway point. In the case of `C[C@@H]1Cc2c([nH]c3ccccc23)[C@@H](c2c(F)cc(N3CC(CC(=O)N4CC(N5Cc6cc7c(cc6C5)C(=O)N(C5CCC(=O)NC5=O)C7)C4)C3)cc2F)N1CC(F)F` (stereo partly drawn) [E 103, 3-(6-(1-(2-(1-(4-((1R,3R)-2-(2,2-difluoroethyl)-3-methyl-2,3,4,9-tetrahydro-1H-pyrido[3,4-b]indol-1-yl)-3,5-difluorophenyl)azetidin-3-yl)acetyl)azetidin-3-yl)-1-oxo-3,5,6,7-tetrahydropyrrolo[3,4-f]isoindol-2(1H)-yl)piperidine-2,6-dione], the DC50 is 10 to 100 nM.
Same read-out and setting: then `O=C1CCC(N2Cc3cc4c(cc3C2=O)CN(C2CCN(CC3CN(c5ccc([C@@H]6c7ccc(O)cc7CC[C@@H]6c6ccccc6)cc5)C3)CC2)C4)C(=O)N1` (stereo partly drawn) [E 294, 3-(6-(1-((1-(4-((1R,2S)-6-hydroxy-2-phenyl-1,2,3,4-tetrahydronaphthalen-1-yl)phenyl)azetidin-3-yl)methyl)piperidin-4-yl)-1-oxo-3,5,6,7-tetrahydropyrrolo[3,4-f]isoindol-2(1H)-yl)piperidine-2,6-dione], with greater than 100 nM; and `O=C1CCC(N2Cc3cc4c(cc3C2=O)CN(C(=O)[C@H]2CC[C@H](N3CC(Nc5ccc([C@@H]6c7ccc(O)cc7CC[C@@H]6c6ccccc6)cc5)C3)CC2)C4)C(=O)N1` (single isomer, unassigned) [E 360], with less than 10 nM; and `C[C@@H]1Cc2c([nH]c3ccccc23)[C@@H](c2c(F)cc(N3CCC(C(=O)N4CC(CN5Cc6cc7c(cc6C5)C(=O)N(C5CCC(=O)NC5=O)C7=O)C4)CC3)cc2F)N1CC(F)F` (stereo partly drawn) [E 234, 6-((1-(1-(4-((1R,3R)-2-(2,2-difluoroethyl)-3-methyl-2,3,4,9-tetrahydro-1H-pyrido[3,4-b]indol-1-yl)-3,5-difluorophenyl)piperidine-4-carbonyl)azetidin-3-yl)methyl)-2-(2,6-dioxopiperidin-3-yl)-6,7-dihydropyrrolo[3,4-f]isoindole-1,3(2H,5H)-dione], with 10 to 100 nM.
`O=C1CCC(N2C(=O)c3cc4c(cc3C2=O)CN(C(=O)[C@H]2CC[C@@H](CN3CC(Nc5ccc([C@@H]6c7ccc(O)cc7CC[C@@H]6c6ccccc6)cc5)C3)CC2)C4)C(=O)N1` (stereo partly drawn) [E 364, 2-(2,6-dioxopiperidin-3-yl)-6-((1S,4s)-4-((3-((4-((1R,2S)-6-hydroxy-2-phenyl-1,2,3,4-tetrahydronaphthalen-1-yl)phenyl)amino)azetidin-1-yl)methyl)cyclohexane-1-carbonyl)-6,7-dihydropyrrolo[3,4-f]isoindole-1,3(2H,5H)-dione]: the 50% degradation concentration (DC50) was 10 to 100 nM.
For the compound `O=C1CCC(N2C(=O)c3cc4c(cc3C2=O)CN(CC2CCN(CC3CN(c5ccc([C@@H]6c7ccc(O)cc7CC[C@@H]6c6ccccc6)cc5)C3)CC2)C4)C(=O)N1` (stereo partly drawn) [E244, 2-(2,6-dioxopiperidin-3-yl)-6-((1-((1-(4-((1R,2S)-6-hydroxy-2-phenyl-1,2,3,4-tetrahydronaphthalen-1-yl)phenyl)azetidin-3-yl)methyl)piperidin-4-yl)methyl)-6,7-dihydropyrrolo[3,4-f]isoindole-1,3(2H,5H)-dione], the DC50 lay within 10 to 100 nM.
Same read-out and setting: then `O=C1CCC(N2C(=O)c3cc4c(cc3C2=O)CN(CC2CCN(c3ccc([C@@H]5c6ccc(O)cc6CC[C@@H]5c5ccccc5)cc3)CC2)C4)C(=O)N1` (mixture of isomers) [E 2, Rac-2-(2,6-dioxopiperidin-3-yl)-6-((1-(4-((1R,2S)-6-hydroxy-2-phenyl-1,2,3,4-tetrahydronaphthalen-1-yl)phenyl)piperidin-4-yl)methyl)-6,7-dihydropyrrolo[3,4-f]isoindole-1,3(2H,5H)-dione], with 10 to 100 nM; and `O=C1CCC(N2C(=O)c3cc4c(cc3C2=O)CN(C(=O)CN2CCC3(CC2)CCN(c2ccc(C(=C(CCCl)c5ccccc5)c5ccc(B(O)O)cc5)cc2)CC3)C4)C(=O)N1` (centres unmarked) [E 198, (4-(4-chloro-1-(4-(9-(2-(6-(2,6-dioxopiperidin-3-yl)-5,7-dioxo-3,5,6,7-tetrahydropyrrolo[3,4-f]isoindol-2(1H)-yl)-2-oxoethyl)-3,9-diazaspiro[5.5]undecan-3-yl)phenyl)-2-phenylbut-1-en-1-yl)phenyl)boronic acid], with 10 to 100 nM; and `CN(C1CN(c2ccc([C@@H]3c4ccc(O)cc4CC[C@@H]3c3ccccc3)cc2)C1)[C@H]1CC[C@@H](C(=O)N2Cc3cc4c(cc3C2)C(=O)N(C2CCC(=O)NC2=O)C4)CC1` (single isomer, unassigned) [E 356], with greater than 100 nM.
Still for that read-out and setting: then `O=C1CCC(N2C(=O)c3cc4c(cc3C2=O)CN(C2CCN(C(=O)C3CCN(c5ccc([C@@H]6c7ccc(O)cc7CC[C@@H]6c6ccccc6)cc5)CC3)CC2)C4)C(=O)N1` (mixture of isomers) [E 13, Rac-2-(2,6-dioxopiperidin-3-yl)-6-(1-(1-(4-((1R,2S)-6-hydroxy-2-phenyl-1,2,3,4-tetrahydronaphthalen-1-yl)phenyl)piperidine-4-carbonyl)pi570 peridin-4-yl)-6,7-dihydropyrrolo[3,4-f]isoindole-1,3(2H,5H)-dione], with less than 10 nM; and `O=C1CCC(N2C(=O)c3cc4c(cc3C2=O)CN(C(=O)C2CCC(CN3CCN(c5ccc([C@@H]6c7ccc(O)cc7CC[C@@H]6c6ccccc6)cc5)CC3)CC2)C4)C(=O)N1` (stereo partly drawn) [E 365, 2-(2,6-dioxopiperidin-3-yl)-6-(4-((4-(4-((1R,2S)-6-hydroxy-2-phenyl-1,2,3,4-tetrahydronaphthalen-1-yl)phenyl)piperazin-1-yl)methyl)cyclohexane-1-carbonyl)-6,7-dihydropyrrolo[3,4-f]isoindole-1,3(2H,5H)-dione], with greater than 100 nM.
Regarding `C[C@@H]1Cc2cc(O)ccc2[C@@H](c2c(F)cc(N3CCC4(CC3)CN(C(=O)CN3Cc5cc6c(cc5C3)C(=O)N(C3CCC(=O)NC3=O)C6=O)C4)cc2F)N1CC(F)F` (stereo partly drawn) [E 41, 6-(2-(7-(4-((1S,3R)-2-(2,2-difluoroethyl)-6-hydroxy-3-methyl-1,2,3,4-tetrahydroisoquinolin-1-yl)-3,5-difluorophenyl)-2,7-diazaspiro[3.5]nonan-2-yl)-2-oxoethyl)-2-(2,6-dioxopiperidin-3-yl)-6,7-dihydropyrrolo[3,4-f]isoindole-1,3(2H,5H)-dione], the DC50 was less than 10 nM.
Still for that read-out and setting: then `C[C@@H]1Cc2c([nH]c3ccccc23)[C@@H](c2c(F)cc(C3CCC(C(=O)N4CCC(CN5Cc6cc7c(cc6C5)C(=O)N(C5CCC(=O)NC5=O)C7=O)CC4)CC3)cc2F)N1CC(F)F` (stereo partly drawn) [E248, 6-((1-(4-(4-((1R,3R)-2-(2,2-difluoroethyl)-3-methyl-2,3,4,9-tetrahydro-1H-pyrido[3,4-b]indol-1-yl)-3,5-difluorophenyl)cyclohexane-1-carbonyl)piperidin-4-yl)methyl)-2-(2,6-dioxopiperidin-3-yl)-6,7-dihydropyrrolo[3,4-f]isoindole-1,3(2H,5H)-dione], with greater than 100 nM.
Consider `C[C@@H]1CC2(CCN(c3ccc([C@@H]4c5ccc(O)cc5CC[C@@H]4c4ccc(F)cc4)cc3)CC2)CN1C(=O)CN1Cc2cc3c(cc2C1)C(=O)N(C1CCC(=O)NC1=O)C3=O` (mixture of isomers) [E 145, Rac-2-(2,6-dioxopiperidin-3-yl)-6-(2-((R)-8-(4-((1R,2S)-2-(4-fluorophenyl)-6-hydroxy-1,2,3,4-tetrahydronaphthalen-1-yl)phenyl)-3-methyl-2,8-diazaspiro[4.5]decan-2-yl)-2-oxoethyl)-6,7-dihydropyrrolo[3,4-f]isoindole-1,3(2H,5H)-dione], for which the 50% degradation concentration (DC50) lay in the range of 10 to 100 nM.
In the case of `O=C1CCC(N2C(=O)c3cc4c(cc3C2=O)CN(C2CCN(CC3CCN(c5ccc([C@@H]6c7ccc(O)cc7CC[C@@H]6c6ccc(F)cc6)cc5)CC3)CC2)C4)C(=O)N1` (stereo partly drawn) [E 273, 2-(2,6-dioxopiperidin-3-yl)-6-(1-((1-(4-((1R,2S)-2-(4-fluorophenyl)-6-hydroxy-1,2,3,4-tetrahydronaphthalen-1-yl)phenyl)piperidin-4-yl)methyl)piperidin-4-yl)-6,7-dihydropyrrolo[3,4-f]isoindole-1,3(2H,5H)-dione], the DC50 lay in the range of 10 to 100 nM.

Still in this test, the particulars now being: compounds 16 hours, Table A does not say whether T47D or MCF7, read-out: Potency (DC50).
On to `COc1cc(N2CCC3(CCN(C(=O)CN4Cc5cc6c(cc5C4)C(=O)N(C4CCC(=O)NC4=O)C6=O)CC3)CC2)ccc1[C@@H]1c2[nH]c3ccccc3c2C[C@@H](C)N1CC(C)(C)F` (stereo partly drawn) [E 514, 2-(2,6-dioxopiperidin-3-yl)-6-(2-(9-(4-((1R,3R)-2-(2-fluoro-2-methylpropyl)-3-methyl-2,3,4,9-tetrahydro-1H-pyrido[3,4-b]indol-1-yl)-3-methoxyphenyl)-3,9-diazaspiro[5.5]undecan-3-yl)-2-oxoethyl)-6,7-dihydropyrrolo[3,4-f]isoindole-1,3(2H,5H)-dione], for which the DC50 lay in the range of 10 to 100 nM.
As for `C[C@@H]1Cc2cc(O)ccc2[C@@H](c2c(F)cc(C(=O)N3CC4(CCC(CN5Cc6cc7c(cc6C5)C(=O)N(C5CCC(=O)NC5=O)C7=O)CC4)C3)cc2F)N1CC(F)F` (stereo partly drawn) [E 464, 6-((2-(4-((1S,3R)-2-(2,2-difluoroethyl)-6-hydroxy-3-methyl-1,2,3,4-tetrahydroisoquinolin-1-yl)-3,5-difluorobenzoyl)-2-azaspiro[3.5]nonan-7-yl)methyl)-2-(2,6-dioxopiperidin-3-yl)-6,7-dihydropyrrolo[3,4-f]isoindole-1,3(2H,5H)-dione], the 50% degradation concentration (DC50) was greater than 100 nM.
